# Assay results as given in the SangsterLogP compilation.
# Tests used:
# [1] = method code SF-RC, from DOI: 10.1021/jm050166g.s001, PMID: 16162001; details: pH 7.4
# [2] = method code SF-RC, from DOI: 10.1016/j.mibio.2003.09.009; details: pH 7.4
# [3] = method code SF, from DOI: 10.1016/s0223-5234(00)80025-2, PMID: 11278041; details: pH 7.4
# [4] = method code SF-RC, from DOI: 10.1515/ract-2013-2119
# [5] = method code SF-AS, from DOI: 10.1016/0048-3575(89)90091-6
# [6] = method code SF-RC, from DOI: 10.1021/es60172a005, PMID: 22280000
# [7] = method code SF-AS, from PMID: 582102; details: pH 3.0
# [8] = method code SF-HPLC, from DOI: 10.1021/jm1007903, PMID: 20828199; details: pH 7.4
# [9] = method code SF-RC, from PMID: 2883979; details: pH 10.0
# [10] = method code SF, from DOI: 10.1016/j.ejps.2014.02.002, PMID: 24530864; details: pH 7.4
# [11] = not given; remark: listed apart in the source
# [12] = method code SF-HPLC, from DOI: 10.1016/j.bmc.2009.06.014, PMID: 19586774; details: pH 7.4
# [13] = method code SF-HPLC, from Gao, X.; Yu, Y.; Wang, Y.; Pi, J.; Zhang, W.; Xiao, X. (2013). Determination of equilibrium solubility and apparent partition coefficient of bakuchiol. West China Journal of Pharmaceutical Sciences, …
# [14] = method code SF-AS, from Sengupta, C.; Mondal, K. (1986). Partition coefficients of some anticoagulants and coagulants in relation to their biological activity. Indian J Pharm Sci, 48(2)51-52.
# [15] = method code SF, from Zhang, Y. (2010). Determination and Correlation of 1-Octanol/Water Partition Coefficients for Six Quinolones from 293.15 K to 323.15 K. Chemical Research in Chinese Universities, 26(4)636-639.
# [16] = method code SF-HPLC, from DOI: 10.1016/0378-5173(94)90060-4; details: pH 5.0
# [17] = not given; remark: listed apart in the source
# [18] = not given; remark: listed apart in the source
# [19] = method code SF-RC, from DOI: 10.1111/j.2042-7158.1976.tb04141.x, PMID: 6703
# [20] = method code SF, from DOI: 10.1097/00004424-199009001-00048; details: pH 7.4
# [21] = method code SF-RC, from DOI: 10.1267/nukl06010041, PMID: 16493513; details: pH 7.4
# [22] = method code SF-HPLC, from DOI: 10.1002/jps.2600840622; details: pH 7.0
# [23] = method code SF-HPLC, from DOI: 10.1016/j.bmc.2015.09.009, PMID: 26385444
# [24] = method code SF-AS, from DOI: 10.1021/es00127a005
# [25] = not given; remark: listed apart in the source
# [26] = method code SF, from Blakemore, C.; Brown, H.; Durant, J.; Emmett, C.; Ganellin, R.; Parsons, E.; Rasmussen, C. (1980). SK&F 92994: a new histamine H2-receptor antagonist. COMMUNICATIONS: Part II. Br. J. Pharmacol., …; details: pH 8.5
# [27] = not given; remark: listed apart in the source
# [28] = method code SF, from DOI: 10.1021/jm00123a006, PMID: 2918500; details: pH 7.4
# [29] = method code SF, from DOI: 10.1021/jm9018146, PMID: 20232803; details: pH 7.4
# [30] = not given; remark: listed apart in the source
# [31] = method code SF-AS, from DOI: 10.1111/j.2042-7158.1989.tb06480.x, PMID: 2570831; details: pH 7.4
# [32] = method code SF-AS, from PMID: 7306420; details: pH 7.5
# [33] = not given; remark: listed apart in the source
# [34] = method code SF-HPLC, from DOI: 10.1021/js950346l, PMID: 9109056
# [35] = not given; remark: listed apart in the source
# [36] = method code SF-RC, from DOI: 10.1016/j.nucmedbio.2007.04.005, PMID: 17591554; details: pH 7.4
# [37] = not given; remark: listed apart in the source
# [38] = not given; remark: listed apart in the source
# [39] = method code SF, from DOI: 10.1016/0223-5234(96)89550-x
# [40] = not given; remark: listed apart in the source
# [41] = not given; remark: listed apart in the source
# [42] = not given; remark: listed apart in the source
# [43] = method code SF-RC, from DOI: 10.1007/s00259-007-0645-5, PMID: 18057934; details: pH 7.4
# [44] = not given; remark: listed apart in the source
smiles,measurement,setting,value
CNc1ccc(C=Cc2ccc(OCC(CO)CF)cc2)cc1 (stereo not given),logD,[1],2.95
CN1CCc2cc(Cl)c(O)cc2C(c2cccc3ccoc23)C1 (stereo not given),logD,[2],3
CC(C)Cc1ccc(C(C)C(=O)OCN2C(=O)CCC2=O)cc1 (stereo not given),logD,[3],2.62
CCN1CCc2cc(S(=O)(=O)Nc3ccc(F)cc3F)cc(NC(C)=O)c21,logP,,1.4
Fc1ccc(CN2CCN(Cc3cnn4ccccc34)CC2)cc1,logP,[4],2.8
CC1(C)C(C=C2CCSC2=O)C1C(=O)OCc1ccccc1 (stereo not given),logP,[5],4.02
c1ccc2nc(-c3ccc4ccccc4n3)ccc2c1,logP,[6],4.31
COc1ccc(N(CCCC(=O)O)C(=O)c2ccc(Cl)cc2)cc1,logD,[7],2.7
CCCCCCCc1c(C)[nH]c2cc(OC)c(Cl)cc2c1=O,logD,[8],3.83
CN1CCC(N(Cc2ccccc2)c2ccccc2)CC1,logD,[9],2.6
Cc1ncc2n1-c1ccc(Cl)cc1C(c1ccccc1F)=NC2,logD,[10],3
O=S(c1ccc(F)cc1)C1CCN(CCc2ccc(F)cc2F)CC1 (stereo not given),logP,[11],2.67
CCc1cc(Cl)cc2[nH]c(=O)c(-c3cccc(NC)c3)c(O)c12,logD,[12],1.92
C=C[C@@](C)(/C=C/c1ccc(O)cc1)CCC=C(C)C,logP,[13],4.27
CC(=O)CC(c1ccc([N+](=O)[O-])cc1)c1c(O)c2ccccc2oc1=O (stereo not given),logP,[14],1.98
CC1COc2c(N3CCN(C)CC3)c(F)cc3c(=O)c(C(=O)O)cn1c23 (stereo not given),logP,[15],-0.05
COC(=O)Nc1nc2cc(C(=O)c3ccccc3)ccc2n1C(=O)OC,logD,[16],2.47
c1ccc(Oc2ccccc2-c2ccccc2)cc1,logP,[17],5.66
CN(C)CC/C=C1/c2ccccc2Sc2ccc(Cl)cc21,logP,[18],5.18
O=C(CCCN1CCN(c2ccccn2)CC1)c1ccc(F)cc1,logP,[19],3.3
O=C(NCC(O)CO)c1c(I)c(C(=O)NCC(O)CO)c(I)c(N(CCO)C(=O)CO)c1I (stereo not given),logD,[20],-2.98
Clc1ccc(N2CCN(Cc3cnn4c(I)cccc34)CC2)cc1,logD,[21],2.36
CCCN1CCN(c2cc3c(cc2F)c(=O)c(C(=O)O)cn3CC)CC1,logD,[22],1.05
CC1=C(C(=O)Nc2nc3ccccc3s2)C(c2ccccc2)NC(=S)N1 (stereo not given),logP,[23],2.03
Oc1ccc(C(c2ccccc2)c2ccc(O)cc2)cc1,logP,[24],4.3
O=C(NC12CC3CC(CC(C3)C1)C2)C(O)c1ccccc1 (stereo not given),logP,[25],3.09
Cc1[nH]cnc1CSCCNc1nc(=O)c(Cc2ccc3c(c2)OCO3)c[nH]1,logD,[26],2.11
CCC(c1ccc(O)cc1)C(C(C)=O)c1ccc(O)cc1 (stereo not given),logP,[27],3.1
Nc1ccc(CCN2CCN(c3cccc(C(F)(F)F)c3)CC2)cc1I,logD,[28],3.69
CCOC(=O)[C@@]1(C)CSC(c2ccc(OCCOCCOC)cc2O)=N1,logD,[29],3
CCN(CC)CCN1c2ccccc2Sc2ccccc21,logP,[30],5.94
Nc1ncnc2c1ncn2C(c1ccccc1)c1ccccc1,logD,[31],3.19
C#CCN1C(=O)CN=C(c2ccccc2)c2cc(Cl)ccc21,logD,[32],2.87
COc1ccc(N2CCn3c(nc4ccccc4c3=O)C2C)cc1 (stereo not given),logP,[33],1.29
COc1ccc2c(c1)c(CC(=O)O)c(C)n2C(=O)c1ccc(Cl)cc1,logP,[34],3.86
CCCCCCCCCCCC(=O)N1CCCCCC1,logP,[35],7.3
COc1ccc(/C=C2\CCCN=C2c2cccnc2)c(OC)c1,logD,[36],2.82
CCC(C)(CC)c1cc(NC(=O)c2c(OC)cccc2OC)on1,logP,[37],3
CC[C@H](Oc1ccccc1)C(=O)N[C@@H]1C(=O)N2[C@@H]1SC(C)(C)[C@@H]2C(=O)O,logP,[38],2.58
O=C(Nc1ccn(C2CSC(CO)O2)c(=O)n1)c1cnc2ccccc2c1 (stereo not given),logP,[39],0.87
O=S1(=O)OC(c2ccc(O)cc2)(c2ccc(O)cc2)c2ccccc21,logP,[40],3.02
COc1ccc(C2=CC(c3ccc(S(C)(=O)=O)cc3)C=NC2=O)cn1 (stereo not given),logP,[41],1.7
O=C1/C(=C/c2ccccc2F)CCCc2ccccc21,logP,[42],4.55
CCN(CC)C(=O)Cc1c(-c2ccc(I)cc2)nc2ccc(Cl)cn12,logD,[43],3.1
C[C@]12CCC(=O)C[C@@H]1CC[C@@H]1[C@@H]2[C@@H](F)C[C@]2(C)[C@@H](O)CC[C@@H]12,logP,[44],3.5
